The test system of one data set is rat adipocytes. Briefly: Lipogenesis ([U-14C]glucose incorporation into lipids) in rat adipocytes. The data set is classed as cell-based. As to the method: (4A) Insulin (17.24 nmoles in 0.2 ml 0.01 M NaHCO3) reacted with increasing concentrations of PEG5000-Fmoc-OSu at a molar excess over the protein as indicated in the figure for 2 hours at 25° C. The number of free amino groups that remained unmodified were quantitated with TNBS.
PEG5000-Fmoc-insulin conjugates containing one and two moles of PEG5000-Fmoc/mole insulin were incubated at a concentration of 0.172 μM in 0.1 M NaHCO3-0.5% bovine serum albumin and 1 mM NaN3 at 37° C. At the indicated time points aliquots were analyzed (in several concentrations for each aliquot) for their lipogenic potencies in rat adipocytes.
Results are expressed as a percentage of maximal stimulation.
(ii) Rat adipocytes were prepared from fat pads of male Wistar rats (100-200 gr) by collagenase digestion as described (Rodbell, 1964). The fat pads were cut into small pieces with scissors and suspended in 3 ml of KRB buffer containing NaCl, 110 mM; NaHCO3, 25 mM; Kcl, 5 mM; KH2PO4, 1.2 mM; CaCl2, 1.3 mM; MgSO4, 1.3 mM; and 0.7% BSA (pH 7.4). […] Five ml of buffer was then added, and the cells were passed through a mesh screen. The cells were then allowed to stand for several minutes in a 15 ml plastic test tube at room temperature, floating, and the buffer underneath was removed. This procedure (suspension, floating, and removal of buffer underneath) was repeated three times.
(iii) Lipogenesis (incorporation of [U-^14C] glucose into the lipids of intact adipocytes). The incorporation of [U-^14C] glucose into adipose tissue in rat adipocytes was performed as described (Moody et al., 1974). Adipocyte suspensions (3×10^5 cells/ml) were divided into plastic vials (0.5 ml per vial) and incubated for 60 min at 37° C. under an atmosphere of carbogen with 0.2 mM [U-^14C]glucose, in either the absence or presence of insulin. Lipogenesis was terminated by adding toluene-based scintillation fluid (1.0 ml per vial) and the radioactivity in extracted lipids was counted.
Rat adipocytes were prepared from the fat pads of male Wistar rats (100-200 g) by collagenase digestion (Rodbel, 1964). Lipogenesis (during which [U^14-C] glucose was incorporated into the lipids) was performed using the procedure of Moody et al (Moody et al., 1974). Diabetes was induced by a single intravenous injection of freshly prepared streptozocin (STZ) solution (55 mg/kg body wt) as previously described (Meyerovitch et al., 1987). Rats were maintained at 24° C. under conditions of controlled lighting and were fed ad libitum. Blood samples for the analysis of blood glucose were taken from the tail veins and measured with a glucose analyzer (Beckman Instruments, Fullerton, Calif.) by the glucose oxidase method. Groups consisted of five Wistar rats weighing 170±5 g. Data are presented as means±SE.

The next data set deals with CD1-mice. The data set is described as follows: Glucose-lowering potency of insulin and PEG5000-Fmoc-insulin in mice (SC or IP). The data set is classed as in vivo, mouse. As for the experimental part:
Mice received SC, either native insulin (Zn^2+-free, 1.72 nmole/mouse in 0.2 ml PBS buffer) or (PEG5000-Fmoc)1-insulin (17.2 nmole/mouse, in 0.2 ml PBS buffer). Blood glucose levels were determined at the indicated time points. Each point is the arithmetic mean±SEM of blood glucose of five mice.
Groups of mice received IP either insulin (Zn^2+-free, 0.345 nmol/mouse, in 0.2 ml PBS buffer) or (PEG5000-Fmoc)1-insulin (3.45 nmoles/mouse, in 0.2 ml PBS buffer). Blood glucose levels were determined at the indicated time points. Each point in the figure is the arithmetic mean±SEM of five mice.
(iv) Glucose-lowering potency of insulin and its derivatives was determined in mice following administration under the conditions specified in each experiment. […] Each group consisted of 4-5 mice. Data are presented as means±SEM.
Native insulin (Zn^2+ free, 1.72 nmol/mouse) or (PEG5000-Fmoc)1-insulin (17.2 nmoles/mouse) were administered subcutaneously to groups of mice (n=5 in each group), and the glucose lowering profiles were determined. Native insulin reduced blood glucose level maximally at 30 min.
In order to differentiate between these factors, the subcutaneous compartment was bypassed by administering native insulin (Zn^2+-free, 0.345 nmoles/mouse, in 0.2 ml PBS buffer) or (PEG5000-Fmoc)1-insulin (3.45 nmoles/mouse, in 0.2 ml PBS buffer) intraperitoneally. The glucose lowering capacities were then monitored. Blood glucose levels were determined at different time points.

The next data set has as its system C57BL/6J male mice. Briefly: Food intake (re-feeding after 24 h starvation) in mice. The data set is classed as in vivo, mouse. As for the experimental part:
Drinking water was provided at all times.
Results are average of four identical experiments.
Drinking water was provided at all times. […] A minimum interval of 1 h was introduced between injection and re-feeding to avoid a stress-dependent decrease in food intake. The amount of food consumed per group was determined at the end of the feeding period. Remaining chow was weighed after the 2 h re-feeding period and the cumulative food intake per 10 mice was calculated. Values of food intake in replicate experiments were normalized according to the saline controls. Results are expressed as food intake per 10 mice±SD from 2-5 replicate experiments.
(vi) Statistical analysis. The significance of differences in food consumption was determined by the Student's t-test, using the total weight of food consumed by each group of 10 mice as a single value. A saline-injected group of 10 mice was included in each experiment as a control. A two-tailed, paired t-test was performed between the control and treated groups.

Data set [1] in a line: Hydrolysis of conjugates / release of parent drug upon incubation at pH 8.5, 37° C. (HPLC or TNBS). Particulars: after 40 h.
In data set [2] the test system is Escherichia coli (E. coli strain N-4156-W.T). Briefly: Inhibition of E. coli replication (antibacterial potency of gentamicin and PEG-Fmoc-gentamicin). The data set is classed as cell-based.
Where [3] appears, read: SC 5 nmol/mouse, 18 h prior to re-feeding.

Values joined by “and” are separate entries in the source; they are usually repeats but may differ in a detail not shown here. Identical values can stand only once.

For the substance “(PEG5000-Fmoc)1-insulin: about one mol PEG-Fmoc per mol insulin”, the “lipogenic activity, % of native potency” value with rat adipocytes (after 2 hours at pH 8.5, 37° C.) is 16%; in the data set with rat adipocytes (after 4 hours at pH 8.5, 37° C.) it was 24%; with rat adipocytes (after 10 hours at pH 8.5, 37° C.), 30%; with rat adipocytes (after 17 hours at pH 8.5, 37° C.), 36%; in the data set with rat adipocytes (after 80 hours at pH 8.5, 37° C.), 95%. In addition, the “biological (lipogenic) potency of the native hormone” value in the data set on rat adipocytes (prior to hydrolysis / time 0) was found to be 7±1%. Besides, the “return to normoglycemia, slower than native hormone” value in the data set with CD1-mice (IP administration) was found to be 3.4 fold. Moreover, the “time of maximal fall of circulating glucose” value with CD1-mice (IP, 3.45 nmoles/mouse) came to 1.0 h. The “time of return to normal glucose values after administration” value in the data set on CD1-mice (IP, 3.45 nmoles/mouse) came to 6 h. Moreover, the “additional time maintained at the low glucose level” value in the data set on CD1-mice (SC, 17.2 nmoles/mouse) was 4 h. In addition, in the data set with CD1-mice (SC, 17.2 nmoles/mouse), the “time of maximal lowering of circulating glucose” value amounted to 4 h. Further, in the data set with CD1-mice (single SC administration), the “half time of return to normoglycemic values relative to native insulin” value was found to be 6.7 fold.

Turning to “(PEG5000-Fmoc)2-insulin: insulin conjugate containing two moles of PEG5000-Fmoc/mole insulin”, the “lipogenic activity, % of native insulin potency” value in the data set with rat adipocytes (after 30±2 hours at pH 8.5, 37° C.) was 45±3%; in the data set with rat adipocytes (after 80±4 hours at pH 8.5, 37° C.) it was 90%. Besides, the “lag period before regeneration of lipogenic potency” value in the data set on rat adipocytes (incubation at pH 8.5, 37° C.) is 10 ± 1 h and 10 h.

With “Nα-Nε-diacetyl-PYY3-36: PYY3-36 acetylated at its two amino groups [reference compound]”, in the data set with C57BL/6J male mice (20 μg per mouse), the “food consumed in 2 h re-feeding” value is recorded as 10.54±0.08 g chow per 10 mice.

With “PEG40-FMS-PYY3-36: 1:1 conjugate of PEG40-SH and MAL-FMS-PYY3-36”, in the data set on C57BL/6J male mice (setting [3]), the “food consumed in 2 h re-feeding” value is reported as 4.7±0.14 g chow per 10 mice and the “reduction in food intake compared with saline” value worked out at 52%. Besides, the “reduction in food intake” value in the data set with C57BL/6J male mice (SC 5 nmol/mouse, 24 h prior to re-feeding) amounted to 27%. Besides, the “half-life of satiety effect, longer than unmodified PYY3-36” value in the data set with C57BL/6J male mice (mouse, in vivo) was found to be 8 fold. In addition, in data set [1], the “cumulative amount of free PYY3-36, % of input conjugate” value is 79%.

On to “PEG40-PYY3-36: Irreversibly pegylated PYY3-36, one PEG40 residue per PYY3-36 [reference compound]”, for which the “biological activity of irreversibly pegylated PYY3-36 on food intake” value with C57BL/6J male mice (SC 5 nmol/mouse, 1 h prior to re-feeding) was “No significant reduction in food intake”.

Regarding “PEG5000-Fmoc-insulin: insulin preparations with 0.3 to 2.2 mol PEG5000-Fmoc incorporated per mol insulin”, the “biological (lipogenic) potency relative to native insulin” value in the data set with rat adipocytes (0.3 mol PEG5000-Fmoc/mol insulin incorporated) was 87±4%; in the data set on rat adipocytes (0.6 mol PEG5000-Fmoc/mol insulin incorporated) it was 60±3%; in the data set on rat adipocytes (1.1 mol PEG5000-Fmoc/mol insulin incorporated), 8±1%; in the data set on rat adipocytes (1.5 mol PEG5000-Fmoc/mol insulin incorporated), 4±0.3%; in the data set with rat adipocytes (2.2 mol PEG5000-Fmoc/mol insulin incorporated) it was “less than 1%”.

For the substance gentamicin, in data set [2], the half-inhibitory concentration (IC50) – broadly, the concentration that inhibits the measured activity by half – was 220 ± 20 nM and the “concentration inhibiting E. coli replication half-maximally” value is 0.1 µg/mL.

(Values after patent US9433683B2, “Reversible pegylated drugs” (Yeda Research and Development Co., Ltd., priority 2003, dated 2016).)
